Experimental findings from PMC3654088 (Cell metabolism, 2013) are described below.

The test has as its target T1, Tam41 (Saccharomyces cerevisiae, UniProt P53230).
T1 sequence (P53230 27-385): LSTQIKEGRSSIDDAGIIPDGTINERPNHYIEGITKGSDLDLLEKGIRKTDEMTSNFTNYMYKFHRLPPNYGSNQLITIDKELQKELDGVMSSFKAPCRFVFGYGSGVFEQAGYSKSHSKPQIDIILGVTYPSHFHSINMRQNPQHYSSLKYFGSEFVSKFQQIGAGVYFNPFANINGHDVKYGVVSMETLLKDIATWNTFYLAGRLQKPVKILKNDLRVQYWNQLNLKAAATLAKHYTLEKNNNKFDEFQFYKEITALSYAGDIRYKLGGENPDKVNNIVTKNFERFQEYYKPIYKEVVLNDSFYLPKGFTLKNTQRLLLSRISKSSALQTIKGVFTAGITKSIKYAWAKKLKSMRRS
The experiment in a line: CDP-DAG formation, TLC with fluorescence imaging. It counts as biochemical. Particulars: 2 mM CTP; 2 mM MgCl2; Tris-HCl pH 7.5; 0.2% Triton X-100; 30 °C; 10 min; labelled compound.

Consider NBD-PA, for which the Km – broadly, the substrate concentration at which the rate is half of its maximum – was found to be 67 ± 10 µM.
